Laboratory results: patent publication US6653296B1, “Antiretroviral enantiomeric nucleotide analogs” (Institute of Organic Chemistry and Biochemistry of the …, priority 1992, dated 2003)
≈ marks a conversion by molar mass, not a printed value. Read-outs that look alike come from different tables or passages of the source. Marks after values point to notes of the source that are not given here.

Assays:
[1] = tested on: Moloney murine sarcoma virus (MSV); experiment: MSV-induced transformation of C3H/3T3 cells; type: cell-based; settings: concentration required to inhibit MSV-induced C3H/3T3 cell transformation by 50%; day 6
Procedure: The cells were seeded in 1-ml-wells of a 48-well microtiter plate and exposed to 80 PFU (plaque forming units) for 60-90 minutes. Then, the virus was removed and culture medium containing appropriate concentrations of the test compounds were added (1 ml per well). At day 6 post infection, MSV-induced transformation of the cell culture was examined microscopically.

HIV-1 = HIV-1 induced cytopathicity in MT-4 cells; type: cell-based, human immunodeficiency virus type 1; settings: for EC50 HIV-1: concentration required to inhibit HIV-induced cytopathicity in MT-4 cells by 50%, 5 days
Procedure: (§1) The activity of the compounds against HIV-1 and HIV-2 induced cytopathicity was examined in human lymphocyte MT-4 cells. […] The infected cell cultures were then incubated at 37° C. for 5 days in a humidified CO2-controlled incubator. Then, the cytopathicity of the virus was examined by determination of MT-4 cell viability by trypan blue dye staining.

HIV-2 = HIV-2 induced cytopathicity in MT-4 cells; type: cell-based, human immunodeficiency virus type 2; settings: for EC50 HIV-2: concentration required to inhibit HIV-induced cytopathicity in MT-4 cells by 50%, 5 days
Procedure: as §1

[2] = tested on: Moloney murine sarcoma virus (MSV); experiment: MSV-induced tumor formation and death in newborn NMRI mice, intraperitoneal administration; type: in vivo; settings: for Mean day of animal death: observed 20 days
Procedure: Two gram newborn NMRI mice were injected intramuscularly in the left hind leg with 50 μl of 250-fold diluted stock preparation of Moloney murine sarcoma virus. […] Another group of mice (20 animals) was administered RPMI-1640 medium as placebo. All compounds were solubilized in RPMI-1640 medium. The mice were observed daily for 20 days and the day of tumor initiation and the day of animal death was recorded for each animal. Statistical analyses were performed by calculating the standard deviation.

C3H/3T3 cells = experiment: Microscopic alteration of C3H/3T3 cell culture morphology; type: cell-based, murine; settings: concentration that results in a microscopic alteration of the C3H/3T3 cell culture morphology
MT-4 cells = experiment: MT-4 cell viability (trypan blue); type: cell-based, human
Procedure: The activity of the compounds against HIV-1 and HIV-2 induced cytopathicity was examined in human lymphocyte MT-4 cells. […]. The infected cell cultures were then incubated at 37° C. for 5 days in a humidified CO2-controlled incubator. Then, the cytopathicity of the virus was examined by determination of MT-4 cell viability by trypan blue dye staining. The results are summarized in Table 1 in comparison with the data on the prototype compounds.

retrovirus = experiment: Anti-retrovirus activity in vitro, conclusions on Table 1 (HIV-1, HIV-2, MSV); type: cell-based
[3] = tested on: Moloney murine sarcoma virus (MSV); experiment: MSV-induced tumor formation in NMRI mice, oral administration; type: in vivo
Procedure: Three-week-old NMRI mice (about 10 grams body weight) were injected intramuscularly in the left hind leg with 50 μl of 20-fold diluted stock preparation of Moloney murine sarcoma virus. Starting 2-4 hours before virus infection, six animals received an orally administered test compound twice a day at 100 mg/kg(total dose) daily for five subsequent days. The control (placebo) group consisted of 14 animals. The experiment was evaluated as described in Example 35.

herpes viruses = settings: racemic mixtures, prior art; cited from earlier work
[4] = twice a day, 100 mg/kg total daily dose for five days

CCC(C)Nc1nc(N)nc2c1ncn2C[C@@H](C)OCP(=O)(O)O (stereo partly drawn) [(R)-9-PMP-6-(2-butyl)-DAP, 9-(R)-(2-Phosphonomethoxypropyl)-2-amino-6-(2-butyl)aminopurine]
EC50 MSV [1]: 3.5 µg/mL (≈ 9.77 µM) | EC50 HIV-1 (HIV-1): 30 ± 19 µg/mL (≈ 83.7 µM) | EC50 HIV-2 (HIV-2): 25 ± 15 µg/mL (≈ 69.8 µM)

C[C@H](Cn1cnc2c(NCc3ccccc3)nc(N)nc21)OCP(=O)(O)O [(R)-9-PMP-6-benzyl-DAP, 9-(R)-(2-Phosphonomethoxypropyl)-2-amino-6-benzylaminopurine]
EC50 MSV [1]: 0.3 µg/mL (≈ 0.765 µM) | EC50 HIV-1 (HIV-1): 10.3 µg/mL (≈ 26.3 µM) | EC50 HIV-2 (HIV-2): 8 µg/mL (≈ 20.4 µM)

CCCCNc1nc(N)nc2c1ncn2C[C@@H](C)OCP(=O)(O)O [(R)-9-PMP-6-butyl-DAP, 9-(R)-(2-Phosphonomethoxypropyl)-2-amino-6-butylaminopurine]
EC50 MSV [1]: 3.27 µg/mL (≈ 9.13 µM) | EC50 HIV-1 (HIV-1): 13.1 µg/mL (≈ 36.6 µM) | EC50 HIV-2 (HIV-2): 9.8 µg/mL (≈ 27.3 µM)

C[C@H](Cn1cnc2c(NC3CCCCC3)nc(N)nc21)OCP(=O)(O)O [(R)-9-PMP-6-cyclohexyl-DAP, 9-(R)-(2-Phosphonomethoxypropyl)-2-amino-6-cyclohexylaminopurine]
EC50 HIV-1 (HIV-1): 8.0 µg/mL (≈ 20.8 µM) | EC50 HIV-2 (HIV-2): 7 µg/mL (≈ 18.2 µM)

C[C@H](Cn1cnc2c(N(C)C)nc(N)nc21)OCP(=O)(O)O [(R)-9-PMP-6-dimethyl-DAP, 9-(R)-(2-Phosphonomethoxypropyl)-2-amino-6-dimethylaminopurine]
EC50 MSV [1]: 3.25 µg/mL (≈ 9.84 µM) | EC50 HIV-1 (HIV-1): 2.3 µg/mL (≈ 6.96 µM) | EC50 HIV-2 (HIV-2): 4.2 µg/mL (≈ 12.7 µM)

C[C@H](Cn1cnc2c(N3CCOCC3)nc(N)nc21)OCP(=O)(O)O [(R)-9-PMP-6-morpholino-DAP, 9-(R)-(2-Phosphonomethoxypropyl)-2-amino-6-morpholinopurine]
EC50 MSV [1]: 6.1 µg/mL (≈ 16.4 µM) | EC50 HIV-1 (HIV-1): >100 µg/mL | EC50 HIV-2 (HIV-2): >100 µg/mL

C[C@H](Cn1cnc2c(N3CCCCC3)nc(N)nc21)OCP(=O)(O)O [(R)-9-PMP-6-piperidino-DAP, 9-(R)-(2-Phosphonomethoxypropyl)-2-amino-6-piperidinopurine]
EC50 MSV [1]: 12.6 µg/mL (≈ 34 µM) | EC50 HIV-1 (HIV-1): >100 µg/mL | EC50 HIV-2 (HIV-2): >100 µg/mL

C[C@H](Cn1cnc2c(S)nc(N)nc21)OCP(=O)(O)O [(R)-9-PMP-6-thioG, 9-(R)-(2-Phosphonomethoxypropyl)-2-amino-6-thiopurine]
EC50 MSV [1]: 3.94 µg/mL (≈ 12.3 µM) | EC50 HIV-1 (HIV-1): >100 µg/mL | EC50 HIV-2 (HIV-2): >100 µg/mL

C[C@H](Cn1cnc2c(S)ncnc21)OCP(=O)(O)O [(R)-9-PMP-6-thioPu, 9-(R)-(2-Phosphonomethoxypropyl)-6-mercaptopurine]
EC50 MSV [1]: 18 µg/mL (≈ 59.2 µM) | EC50 HIV-1 (HIV-1): >100 µg/mL | EC50 HIV-2 (HIV-2): >100 µg/mL

C[C@H](Cn1nnc2c(N)ncnc21)OCP(=O)(O)O [(R)-9-PMP-8-azaA, 9-(R)-(2-Phosphonomethoxypropyl)-8-azaadenine]
EC50 MSV [1]: 0.43 µg/mL (≈ 1.49 µM) | EC50 HIV-1 (HIV-1): 2.42 µg/mL (≈ 8.4 µM) | EC50 HIV-2 (HIV-2): 1.75 µg/mL (≈ 6.07 µM)

Nc1ncnc2c1ncn2C[C@H](CF)OCP(=O)(O)O [(R)-FPMPA, reference compound]
Mean day of animal death ([2]; single i.p. dose 20 mg/kg): 10.4 ± 0.52 days | Mean day of animal death ([2]; single i.p. dose 50 mg/kg): 11.2 ± 0.92 days | MIC (C3H/3T3 cells): >100 µg/mL

Nc1nc(N)c2ncn(C[C@H](CF)OCP(=O)(O)O)c2n1 [(R)-FPMPDAP, reference compound]
Mean day of animal death ([2]; single i.p. dose 10 mg/kg): 12.0 ± 1.0 days | Mean day of animal death ([2]; single i.p. dose 25 mg/kg): 14.1 ± 1.5 days | Mean day of animal death ([2]; single i.p. dose 50 mg/kg): 13.9 ± 1.4 days | MIC (C3H/3T3 cells): >100 µg/mL

C[C@H](Cn1cnc2c(N)ncnc21)OCP(=O)(O)O [(R)-PMPA, 9-(R)-(2-Phosphonomethoxypropyl)adenine]
toxicity to the cells (MT-4 cells): non-toxic | inhibiting tumor initiation and prolonging the life-span of MSV-infected mice (in words) ([2]; i.p.): highly effective | Mean day of animal death ([2]; single i.p. dose 2 mg/kg): 12.6 ± 1.26 days | Mean day of animal death ([2]; single i.p. dose 5 mg/kg): 14.4 ± 0.47 days | Mean day of animal death ([2]; single i.p. dose 10 mg/kg): 18.3 ± 1.10 days | percentage of MSV-infected mice still alive at day 20 post infection ([2]; single i.p. dose 20 mg/kg): 100% | Mean day of animal death ([2]; single i.p. dose 20 mg/kg): > 20 days | percentage of MSV-infected mice still alive at day 20 post infection ([2]; single i.p. dose 50 mg/kg): 100% | Mean day of animal death ([2]; single i.p. dose 50 mg/kg): > 20 days | protection against MSV-induced tumor development (in words) ([2]; single i.p. dose of 50 mg/kg): full protection | increasing the mean day of tumor initiation and animal death (in words) ([2]; single i.p. dose of 10-50 mg/kg): markedly effective | concentration markedly inhibitory to retrovirus replication (retrovirus; in vitro, summary of Table 1): 1 to 2 µg/mL | MIC (C3H/3T3 cells): >100 µg/mL

C[C@H](Cn1cnc2c(N)nc(N)nc21)OCP(=O)(O)O [(R)-PMPDAP, 9-(R)-(2-Phosphonomethoxypropyl)-2,6-diaminopurine]
selectivity index (ratio cytotoxic dose/antivirally active dose) for HIV-1 (HIV-1; MT-4 cells): > 2 000 | toxicity to the cells (MT-4 cells; at 100 μg/ml): non-toxic | increase of the mean day of tumor initiation ([3]; 100 mg/kg/day): 50% | Mean day of tumor initiation [3, 4]: 7.5 ± 1.0*^) day | Number of mice developing tumor (%) [3, 4]: 67% | in vivo anti-MSV activity relative to (R)-PMPA ([2]; i.p.): five-fold superior over (R)-PMPA | inhibiting tumor initiation and prolonging the life-span of MSV-infected mice (in words) ([2]; i.p.): highly effective | percentage of MSV-infected mice still alive at day 20 post infection ([2]; single i.p. dose 2 mg/kg): 70% | percentage of MSV-infected mice without tumor at day 20 post infection ([2]; single i.p. dose 2 mg/kg): 36% | Mean day of animal death ([2]; single i.p. dose 2 mg/kg): 15 days | percentage of MSV-infected mice still alive at day 20 post infection ([2]; single i.p. dose 5 mg/kg): 90% | Mean day of animal death ([2]; single i.p. dose 5 mg/kg): 16.5 days | percentage of MSV-infected mice still alive at day 20 post infection ([2]; single i.p. dose 10 mg/kg): 90% | Mean day of animal death ([2]; single i.p. dose 10 mg/kg): 18.5 days | percentage of MSV-infected mice still alive at day 20 post infection ([2]; single i.p. dose 20 mg/kg): 95% | Mean day of animal death ([2]; single i.p. dose 20 mg/kg): 18 days | protection of the animals against MSV-induced tumor development ([2]; single i.p. dose of 10-20 mg/kg): 90-95% | selectivity index (ratio cytotoxic dose/antivirally active dose) for HIV-2 (HIV-2; MT-4 cells): > 2 000 | MIC (C3H/3T3 cells): >100 µg/mL

C[C@H](Cn1cnc2c(=O)[nH]c(N)nc21)OCP(=O)(O)O [(R)-PMPG, 9-(R)-(2-phosphonomethoxypropyl)guanine]
MIC (C3H/3T3 cells): 40 µg/mL (≈ 132 µM)

Nc1ncnc2c1ncn2C[C@@H](CF)OCP(=O)(O)O [(S)-FPMPA, reference compound]
Mean day of animal death ([2]; single i.p. dose 10 mg/kg): 13.6 ± 2.8 days | Mean day of animal death ([2]; single i.p. dose 20 mg/kg): 17.2 ± 2.2 days | percentage of MSV-infected mice still alive at day 20 post infection ([2]; single i.p. dose 50 mg/kg): 100% | Mean day of animal death ([2]; single i.p. dose 50 mg/kg): > 20 days | MIC (C3H/3T3 cells): >100 µg/mL

Nc1nc(N)c2ncn(C[C@@H](CF)OCP(=O)(O)O)c2n1 [(S)-FPMPDAP, reference compound]
Mean day of animal death ([2]; single i.p. dose 10 mg/kg): 16.7 ± 3.2 days | Mean day of animal death ([2]; single i.p. dose 25 mg/kg): 14.6 ± 2.2 days | Mean day of animal death ([2]; single i.p. dose 50 mg/kg): 16.5 ± 0.71 days | MIC (C3H/3T3 cells): >100 µg/mL

C[C@@H](Cn1cnc2c(N)ncnc21)OCP(=O)(O)O [(S)-PMPA, 9-(S)-(2-Phosphonomethoxypropyl)adenine]
antiretroviral activity in vivo (in words) ([2]; i.p. dose of 50 mg/kg): no marked antiretroviral activity | Mean day of animal death ([2]; single i.p. dose 10 mg/kg): 10.9 ± 0.88 days | Mean day of animal death ([2]; single i.p. dose 20 mg/kg): 10.9 ± 0.88 days | Mean day of animal death ([2]; single i.p. dose 50 mg/kg): 12.4 ± 0.84 days | antiretroviral activity in vitro (in words) (retrovirus): devoid of marked antiretroviral activity | MIC (C3H/3T3 cells): >100 µg/mL

C[C@@H](Cn1cnc2c(N)nc(N)nc21)OCP(=O)(O)O [(S)-PMPDAP, 9-(S)-(2-phosphonomethoxypropyl)-2,6-diaminopurine]
MIC (C3H/3T3 cells): >100 µg/mL

C[C@@H](Cn1cnc2c(=O)[nH]c(N)nc21)OCP(=O)(O)O [(S)-PMPG, 9-(S)-(2-Phosphonomethoxypropyl)guanine]
MIC (C3H/3T3 cells): 8 µg/mL (≈ 26.4 µM)

Nc1ncnc2c1ncn2CCOCP(=O)(O)O [PMEA, reference compound]
MIC (C3H/3T3 cells): >100 µg/mL

CC(Cn1cnc2c(=O)[nH]c(N)nc21)OCP(=O)(O)O (stereo not shown) [PMPG]
antiherpetic effect (in words) (herpes viruses): due to its substantial cytotoxicity
